This passage reports EC50 results from US6034231A, “Human CNP gene and precursor protein” (Suntory Limited, priority 1990, dated 2000).

Positions of bridges follow the written chain, without caps; N, C: chain ends. No end group written: not given here.

For this assay, the system named is chick rectum. The conditions noted are these: read-out: EC50, chick rectum relaxant activity; isolated chick rectum. Here is the method: A chick rectum relaxant activity measurement was conducted in accordance with the method of Currie et al. described in Nature, 221, 1-13, 1983.

As for “DLRVDTKSRAAWARLLQEHPNARKYKGANKKGLSKGCFGLKLDRIGSMSGLGC (disulfide 37-53) [hCNP-53]”, the EC50 turned out to be 0.87 ± 0.1 nM.
